In the supplement of paper PMC10307832:

Legend:
Test in all cases: relative viability (nuclei count vs DMSO), 5 days (fraction); higher = more cells survive
KIN001-266 + Luminespib = compound: CCN1CCC(CC1)N2C=C(N=N2)CNC3=CC4=C(C(=CN=C4C(=C3)Cl)C#N)NC5=CC(=C(C=C5)F)Cl [KIN001-266] + CCNC(=O)c1noc(-c2cc(C(C)C)c(O)cc2O)c1-c1ccc(CN2CCOCC2)cc1 [Luminespib] (partner 0.01 µM)
In short: (§1)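 Lung cancer cell lines, seeded in 1536-well plates, were treated the following day by pin tool with a single drug or with five library-drug doses (not always all listed) in √10 steps on top of a fixed anchor-drug dose. Cells were fixed and nuclei stained in one step after 5 days, and nuclei were counted. Relative viability is the nuclei count for treated wells divided by that for vehicle wells, reported as medians of duplicate plates.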

KIN001-266 + Foretinib = compound: CCN1CCC(CC1)N2C=C(N=N2)CNC3=CC4=C(C(=CN=C4C(=C3)Cl)C#N)NC5=CC(=C(C=C5)F)Cl [KIN001-266] + COc1cc2c(Oc3ccc(NC(=O)C4(C(=O)Nc5ccc(F)cc5)CC4)cc3F)ccnc2cc1OCCCN1CCOCC1 [Foretinib] (partner 0.25 µM)
In short: as §1

KIN001-266 + Tozasertib = compound: CCN1CCC(CC1)N2C=C(N=N2)CNC3=CC4=C(C(=CN=C4C(=C3)Cl)C#N)NC5=CC(=C(C=C5)F)Cl [KIN001-266] + Cc1cc(Nc2cc(N3CCN(C)CC3)nc(Sc3ccc(NC(=O)C4CC4)cc3)n2)n[nH]1 [Tozasertib] (partner 0.1 µM)
In short: as §1

KIN001-266 + AZD7762 = compound: CCN1CCC(CC1)N2C=C(N=N2)CNC3=CC4=C(C(=CN=C4C(=C3)Cl)C#N)NC5=CC(=C(C=C5)F)Cl [KIN001-266] + NC(=O)Nc1cc(-c2cccc(F)c2)sc1C(=O)N[C@H]1CCCNC1 [AZD7762] (partner 0.2 µM)
In short: as §1

Cell Line | relative viability (KIN001-266 + Luminespib; first compound 0.08 µM) | relative viability (KIN001-266 + Luminespib; first compound 0.253 µM) | relative viability (KIN001-266 + Luminespib; first compound 0.8 µM) | relative viability (KIN001-266 + Luminespib; first compound 2.53 µM) | relative viability (KIN001-266 + Luminespib; first compound 8 µM) | relative viability (KIN001-266 + Foretinib; first compound 0.08 µM) | relative viability (KIN001-266 + Foretinib; first compound 0.253 µM) | relative viability (KIN001-266 + Foretinib; first compound 0.8 µM) | relative viability (KIN001-266 + Foretinib; first compound 2.53 µM) | relative viability (KIN001-266 + Foretinib; first compound 8 µM) | relative viability (KIN001-266 + Tozasertib; first compound 0.08 µM) | relative viability (KIN001-266 + Tozasertib; first compound 0.253 µM) | relative viability (KIN001-266 + Tozasertib; first compound 0.8 µM) | relative viability (KIN001-266 + Tozasertib; first compound 2.53 µM) | relative viability (KIN001-266 + Tozasertib; first compound 8 µM) | relative viability (KIN001-266 + AZD7762; first compound 0.08 µM) | relative viability (KIN001-266 + AZD7762; first compound 0.253 µM) | relative viability (KIN001-266 + AZD7762; first compound 0.8 µM) | relative viability (KIN001-266 + AZD7762; first compound 2.53 µM) | relative viability (KIN001-266 + AZD7762; first compound 8 µM)
LCLC-103H | 0.96 | 1.01 | 0.95 | 0.923 | 0.695 | 0.837 | 0.716 | 0.987 | 0.772 | 0.726 | 0.492 | 0.494 | 0.413 | 0.52 | 0.504 | 0.814 | 0.843 | 0.82 | 0.791 | 0.73
LK-2 | 0.204 | 0.16 | 0.191 | 0.187 | 0.168 | 1.12 | 1.31 | 1.2 | 1.03 | 1.28 | 0.182 | 0.18 | 0.174 | 0.185 | 0.154 | 0.505 | 0.292 | 0.19 | 0.143 | 0.219
LOU-NH91 | 0.35 | 0.312 | 0.286 | 0.337 | 0.391 | 0.943 | 0.924 | 0.623 | 0.804 | 0.724 | 0.675 | 0.689 | 0.492 | 0.609 | 0.501 | 0.785 | 0.617 | 0.711 | 0.711 | 0.734
LU99A | 0.265 | 0.216 | 0.217 | 0.243 | 0.228 | 0.84 | 0.842 | 0.754 | 0.735 | 0.535 | 0.282 | 0.29 | 0.259 | 0.21 | 0.191 | 0.367 | 0.384 | 0.299 | 0.257 | 0.272
LXF-289 | 0.633 | 0.72 | 0.72 | 0.705 | 0.794 | 0.936 | 0.945 | 0.963 | 0.997 | 1.07 | 0.186 | 0.236 | 0.172 | 0.201 | 0.189 | 0.996 | 1.04 | 1.09 | 1.09 | 1.19
NCI-H23 | 0.201 | 0.185 | 0.182 | 0.239 | 0.226 | 0.924 | 0.83 | 0.975 | 0.995 | 0.862 | 0.359 | 0.381 | 0.376 | 0.41 | 0.271 | 0.195 | 0.249 | 0.304 | 0.22 | 0.246
NCI-H322M | 0.86 | 0.576 | 1.05 | 0.83 | 0.926 | 0.942 | 0.96 | 1.03 | 0.962 | 0.864 | 0.451 | 0.554 | 0.513 | 0.433 | 0.458 | 0.63 | 0.64 | 0.612 | 0.451 | 0.544
